Source: PMC13289148, “Assessment of the toxic effects of parabens, commonly used preservatives in cosmetics, and their halogenated by-products on human skin and endothelial cells” (NAM journal, 2025)
“Also recorded” adds a separate entry of the source.

Legend:
[1] = MTT cytotoxicity assay, HMEC-1 endothelial cells; type: cell-based; details: human, HMEC-1 dermal microvascular endothelial cells, read-out: EC50 from cytotoxicity assay, HMEC-1
Experimental: (§1) The human epidermal keratinocytes HEK001 (CRL-2404, ATCC, Manassas, VA) were maintained in a keratinocyte-serum-free medium supplemented with 5 ng/mL human recombinant EGF. The cells were incubated under 5 % CO2 and a 95 % humidified atmosphere at 37 °C ([Bogen et al., 2017]). HMEC-1 cells (CRL-3243, ATCC) were cultured at 37 °C in a 5 % CO2 humidified atmosphere using MCDB-131 medium supplemented with 10 % fetal bovine serum, 1 % penicillin/streptomycin, 10 mM l-glutamine, 1 μg/mL hydrocortisone, and 10 ng/mL EGF supplement.
(§2) The experiments were performed with biological (96 well plates) and technical (wells) replicates. Four to five biological replicates with four technical replicates were used to determine cytotoxicity. Ten paraben concentrations were assessed, ranging from a low human serum-relevant concentration (1 pM) to a high non-human-relevant concentration (1 mM). A solvent control of 0.6 % DMSO and a positive control of 5 % DMSO were also used. Three representative concentrations were chosen for each cell line for the wound-healing assay. Those concentrations were 1 µM, 10 µM, and 100 µM. Upon dosing, plates were returned to the incubator for a 24-hour exposure period.
(§3) Cell viability was assessed using the MTT assay [3-(4,5-dimethylthiazol-2-yl)−2,5-diphenyltetrazolium bromide] ([Solan et al., 2022]). After 24 h of exposure, a 20 % tetrazolium dye solution was added to the cells. The NAD(P)H-dependent oxidoreductase enzymes in viable cells reduced the tetrazolium dye, producing insoluble formazan crystals visible as a purple coloration, indicative of active cellular respiration. Following the incubation period, the media was carefully removed, leaving the formazan crystals behind. To dissolve these crystals, a 1:1 solution of ethanol and DMSO was added to the plate. Absorbance was then measured at 595 nm on a spectrophotometer to quantify the extent of formazan formation (BioTek SynergyTM H1, Winooski, VT).
(§4) A 24-hour exposure period was selected to evaluate the acute toxicity of parabens on HEK001 and HMEC-1 cell lines. […] Assessing the acute effects on these less-characterized cell lines is critical for enabling meaningful comparisons across models. Additionally, acute toxicity studies minimize confounding factors such as nutrient depletion and cell overgrowth, facilitating higher-throughput screening.

[2] = MTT cytotoxicity assay, HEK001 keratinocytes; type: cell-based, human; details: human, HEK001 epidermal keratinocytes, 24 h exposure, MTT, HEK001 keratinocytes; average ± standard deviation; read-out: EC50 from cytotoxicity assay, HEK001
Experimental: as §1, §2, §3, §4

HDFn cells = test system: HDFn cells; parameters: method as in Kizhedath et al., 2019; details: 125 µM, ref Kizhedath et al., 2019; cited from earlier work
HMEC-1 cells = assay: Wound healing (scratch) assay, HMEC-1; type: cell-based, human; details: for sensitivity at high concentration / proliferation rate / wound healing / proliferation rate relative to baseline / untreated control: HMEC-1, 100 µM; for proliferation rate in wound healing assay: HMEC-1, 1–10 µM; for proliferation rate in wound healing assay / proliferation rate / wound healing / proliferation rate relative to baseline / untreated control: 24 h
Experimental: as §1, §2
(§5) As described by [Grada et al. (2017)] and [Yarrow et al. (2004)], a wound-healing assay was used to evaluate the proliferation rate of a disrupted cell monolayer. Cells were seeded at 200,000 cells/mL in 48-well plates and allowed to stabilize, reaching 90–100 % confluency within 24–72 h. Once confluent, the growth media was removed, and a scratch was created in the cell monolayer using a pipette tip. Manual disruption of the cell monolayer was chosen over the use of inserts or automated scratching devices to design experiments that are cost-effective and accessible to laboratories with limited budgets. This approach provides greater flexibility in experimental design without reliance on specialized equipment, making it a practical solution for resource-constrained settings. Additionally, the manual scratch method may better simulate real-world injury scenarios. To minimize variability, consistent pipette tip sizes were employed, experiments were performed in multiple replicates, and immediate visual inspections were conducted to ensure reproducibility and uniformity across trials. The exposure media was then applied, and cytochalasin D ([…]) was used as a positive control to inhibit wound healing by suppressing cell division via […]. Cells were incubated with exposure media for 24 h while kinetic high contrast brightfield (HCBF) images were captured every 30 min using the Lionheart FX automated microscope (Biotek, Agilent). Gen5 software analyzed the scratch area over time, measuring the reduction in cell-free area as migration occurred. All data were normalized to the solvent control for consistency.

HepG2 cells [3] = test system: HepG2 cells; parameters: method as in Kizhedath et al., 2019; details: 125 µM, ref Kizhedath et al., 2019; cited from earlier work
HepG2 cells [4] = test system: HepG2 cells; parameters: method as in Khanal et al., 2012; details: 125 µM, HepG2, compared to HBA, MeP, and PrP; ref Khanal et al., 2012; cited from earlier work
red blood cells (RBCs) = test system: red blood cells (RBCs); parameters: method as in Ko et al. (2023); details: ref Ko et al. (2023), cited from earlier work
[5] = test system: HEK001 cells (human epidermal keratinocytes); assay: MTT cytotoxicity assay, HEK001 keratinocytes; type: cell-based; details: for EC50: 24 h exposure, MTT, HEK001 keratinocytes, average ± standard deviation, read-out: EC50 from cytotoxicity assay, HEK001; for cytotoxic response at high concentration: HEK001, 100 µM, proliferation could not be observed
Experimental: as §1, §2, §3, §4

HEK001 cells = assay: Wound healing (scratch) assay, HEK001; type: cell-based, human; details: for proliferation rate in wound healing assay / proliferation rate / wound healing: 24 h; for proliferation rate / wound healing: HEK001, 100 µM
Experimental: as §1, §2, §5

HaCaT keratinocytes = test system: HaCaT keratinocytes; parameters: method as in Couch, 2024; Kinney, 2022; details: 200 µM, ref Couch, 2024, Kinney, 2022; cited from earlier work
M624 melanoma cells = test system: M624 melanoma cells; parameters: method as in Couch, 2024; Kinney, 2022; details: 200 µM, ref Couch, 2024, Kinney, 2022; cited from earlier work
[6] = 24 h exposure, MTT, HMEC-1 endothelial cells, average ± standard deviation
[7] = HEK001, 1 µM, versus solvent control
[8] = HEK001, 10 µM, versus solvent control

SMILES | EC50 at 24 h [1, 6] | EC50 at 24 h [2] | sensitivity at high concentration (HMEC-1 cells) | proliferation rate in wound healing assay (HMEC-1 cells) | EC50 [5] | cytotoxic response at high concentration [5] | proliferation rate in wound healing assay (HEK001 cells; [7]) | proliferation rate relative to baseline / untreated control (HMEC-1 cells) | proliferation rate / wound healing (HEK001 cells; versus solvent control) | also measured
O=C(O)c1ccc(O)cc1 [HBA, 4-hydroxybenzoic acid] | > 10000 µM | 696 ± 245 µM | – | – | – | – | – | – | – | –
CCCCOC(=O)c1ccc(O)cc1 [BuP, butylparaben] | 75.8 ± 13.4 µM | 1.52 ± 0.51 µM | too sensitive to conduct proliferation assays | proliferation rates comparable to those observed in untreated controls | 1.5 ± 0.51 µM | acutely lethal responses | lower proliferation rates compared to the solvent control | – | – | cell cycle (HDFn cells): cell cycle arrest in the G1 phase; cell cycle (HepG2 cells [3]): cell cycle arrest in the G1 phase; percentage of apoptotic cells (HepG2 cells [4]): higher percentage of apoptotic cells; hemolysis of RBCs (red blood cells (RBCs); 500 µM): increased hemolysis; extracellular phosphatidylserine of RBCs (red blood cells (RBCs); only BuP among MeP, EtP, PrP, BuP, HBA): increase in extracellular phosphatidylserine; proliferation rate in wound healing assay (HEK001 cells; [8]): proliferation significantly decreased; also recorded: lower proliferation rates compared to the solvent control
COC(=O)c1cc(Cl)c(O)c(Cl)c1 [DCMeP, methyl 3,5-dichloro-4-hydroxybenzoate] | > 10000 µM | 54.5 ± 17.8 µM | – | no significant changes in proliferation | – | significant cell death | – | 20–30% | – | proliferation rate / wound healing (HMEC-1 cells): reduction; proliferation rate in wound healing assay (HEK001 cells; HEK001, 1–10 µM): decrease in proliferation
COC(=O)c1ccc(O)cc1 [MeP, Methyl 4-hydroxybenzoate] | – | 1310 ± 464 µM | – | proliferation rates comparable to those observed in untreated controls | – | – | – | 160% | substantial decrease in proliferation rates | EC50 at 24 h [1]: 1090 ± 618 µM
CCCCCCCOC(=O)c1ccc(O)cc1 [heptylparaben] | – | – | – | – | – | – | – | – | – | cell viability, cytochrome C levels, caspase 3 (HaCaT keratinocytes): significantly reduced cell viability, increased cytochrome C levels, and activated caspase 3; cell viability, cytochrome C levels, caspase 3 (M624 melanoma cells): significantly reduced cell viability, increased cytochrome C levels, and activated caspase 3
COC(=O)c1cc(Br)c(O)c(Br)c1 [DBMeP, methyl 3,5-dibromo-4-hydroxybenzoate] | 489 ± 86.4 µM | 1.49 ± 0.37 µM | – | – | 1.5 ± 0.4 µM | – | initially reduced proliferation | 20–30% | dose-dependent increase in proliferation | proliferation in wound healing assay (HMEC-1 cells; HMEC-1, concentration not stated, high variability): reduction in proliferation; proliferation in wound healing assay (HEK001 cells; HEK001, concentrations higher than 1 µM): dose-dependent increase in proliferation
CCOC(=O)c1ccc(O)cc1 [EtP, ethylparaben] | 171 ± 77.9 µM | 536 ± 178 µM | – | proliferation rates comparable to those observed in untreated controls | – | – | – | 20–30% | substantial decrease in proliferation rates | –
COC(=O)c1ccc(O)c(Cl)c1 [CMeP, methyl 3‑chloro-4-hydroxybenzoate] | 788 ± 139 µM | 2.2 ± 0.8 µM | – | proliferation rates comparable to those observed in untreated controls; also recorded: no significant changes in proliferation | – | significant cell death | – | 20–30% | – | proliferation rate / wound healing (HMEC-1 cells): reduction; proliferation rate in wound healing assay (HEK001 cells; HEK001, 1–10 µM): decrease in proliferation
O=C(OCc1ccccc1)c1ccc(O)cc1 [BeP, benzylparaben] | 25.6 ± 3.9 µM | 3.34 ± 0.97 µM | too sensitive to conduct proliferation assays | proliferation rates comparable to those observed in untreated controls | 3.3 ± 1 µM | acutely lethal responses | lower proliferation rates compared to the solvent control | – | – | proliferation rate in wound healing assay (HEK001 cells; [8]): proliferation significantly decreased; also recorded: lower proliferation rates compared to the solvent control
CCCOC(=O)c1ccc(O)cc1 [PrP, propylparaben] | 102 ± 18 µM | 17 ± 9.9 µM | too sensitive to conduct proliferation assays | proliferation rates comparable to those observed in untreated controls | – | acutely lethal responses | – | – | – | –
